Where two headings read alike, the source gives them in different places. Where a SMILES comes first, the peptide text is derived from it. Bridges are numbered along the chain shown (N, C = ends). Where no end group is shown, it is not given here. [ ]: non-standard residue; d: D form. 2Nal = N[C@@H](Cc1ccc2ccccc2c1)C(=O)O; Cit = NC(=O)NCCC[C@H](N)C(=O)O
Assays:
[1] = molecular target: T1, CXCR4 (Homo sapiens, UniProt P61073); assay: CXCR4 internalization assay in SUP-T1 cells; format: cell-based; parameters: CXCR4 receptors endogenously expressed on SUP-T1 cells; endogenous in cells; host or cells: SUP-T1 (ATCC); settings: for induction of CXCR4 internalization (agonistic effect): in absence of CXCL12, data not shown
Description: T-lymphoblastic SUP-T1 cells were washed twice in DPBS containing 2% FBS. Afterwards, cells were first incubated with the PE-labeled rat anti-human CXCR4 mAb (clone 1D9; 2 μg/ml in DPBS/2% FBS; BD Pharmingen) on ice for 45 minutes. […] SUP-T1 cells were subsequently washed once with ice cold DPBS and twice with ice cold assay buffer (see above) before being treated with test compound on ice for 15 minutes. […] Samples were immediately analyzed with the FACSCalibur flow cytometer (Becton Dickinson) whereby the measured fluorescence corresponds to the amount of […] CXCR4 receptors. Data were further analyzed with the FlowJo software.

[2] = molecular target: T1, CXCR4; assay: Calcium mobilization assay (FLIPR Tetra) in U87.CD4.CXCR4 cells; format: cell-based; settings: for agonist activity on intracellular calcium flux: in absence of CXCL12; for IC50: read-out: IC50 Calcium signaling (CXCL12-induced)
Description: U87.CD4.CXCR4 cells were seeded at 2x10^4 cells per well in gelatin-coated black-walled 96-well plates [0.1% gelatin in DPBS, incubated at RT for two hours and washed once with DPBS] and incubated at 37°C and 5% CO2 overnight. […] Fluo-2 AM loaded cells were washed with assay buffer before being incubated in the FLIPR Tetra system at 37°C for five minutes. At the start of the kinetic measurement, compounds were added to the cell plate by the internal robotic system followed by an incubation period of 10 minutes during which changes in the intracellular calcium level were continuously measured by the FLIPR Tetra. […] Each condition was measured in triplicate and repeated several times as further indicated (see Results).

[3] = test system: HIV-1 NL4-3 (X4); assay: microbe, parasite or virus in culture; format: cell-based
Description: PHA-stimulated PBMCs at 5x10^5 cells per sample, pre-incubated with test compounds dissolved in cell culture medium containing IL-2 (2 ng/ml; […] After three days, fresh culture medium with IL-2 was added. Ten days post infection cell supernatant was collected for HIV-1 p24 core antigen enzyme-linked immunosorbent assay (ELISA; Perkin Elmer, Boston, MA, USA) according to the manufacturer’s protocol. In the antiviral assays, each condition was tested in duplicate.

[4] = test system: HIV-1 NL4-3 (X4); assay: microbe, parasite or virus in culture; format: cell-based; remark: listed apart in the source
Description: The anti-HIV replication assays in MT-4 cells and PHA-stimulated PBMCs have been described previously. The HIV-1 T-tropic molecular clone NL4-3 (X4) was obtained from the National Institute of Allergy and Infectious Disease (NIAID) AIDS reagent program (Bethesda, MD, USA). Briefly, 5x10^4 MT-4 cells (in cell culture medium) were treated with different concentrations of compound at 37°C for 30 minutes. Afterwards, a 50% tissue culture infectious dose of the NL4-3 viral stock was added to the cell-compound mixtures. Four days post infection, the cytopathic effect was evaluated microscopically and cell viability was assessed with the MTS method, as described above.
In the antiviral assays, each condition was tested in duplicate.

[5] = test system: CXCR4-positive Jurkat cells; assay: cells; format: cell-based, human
Description: Jurkat cells were washed twice in assay buffer (see above), dispensed into a 96-well plate (5x10^5 cells per well) containing serial dilutions of compounds (in assay buffer) and incubated at RT in the dark for 10 minutes. […] Suspensions of 1.87x10^4 cells were transferred to the chemotaxis insert plate. […] After removal of the insert plate, migrated cells were centrifuged and resuspended in DPBS containing flow cytometry cell counting beads ([…] Fluorescent Particles; Gentaur, London, UK). Both migrated cells and particles were counted by flow cytometry (FACSCanto II; Becton Dickinson). Each compound concentration was tested in triplicate. Data were analyzed using the FlowJo software and the total number of migrated cells was calculated, according to the counted and total number of beads present in the sample.

[6] = molecular target: T1, CXCR4; assay: CXCL12^AF647 binding assay on Jurkat cells; settings: read-out: IC50 CXCL12-CXCR4 binding interaction
Description: In brief, Jurkat cells were washed twice in assay buffer [Hank’s Balanced Salt Solution (HBSS; Thermo Fisher Scientific), 20 mM HEPES buffer (Thermo Fisher Scientific), 0.2% bovine serum albumin (Sigma-Aldrich), pH 7.4]. […] Afterwards, cells were washed twice in assay buffer and subsequently fixed in 1% paraformaldehyde in Dulbecco’s phosphate buffered saline (DPBS). Samples were analyzed with the FACSArray flow cytometer (Becton Dickinson, NJ, USA). Data were further analyzed with the FlowJo Software (Ashland, Oregon, USA).

[7] = in vitro; format: cell-based; settings: human
Description: (§1) Jurkat cells (3x10^5 cells per well in culture medium) were incubated with serial dilutions of compound at room temperature (RT) for two hours. Cytotoxicity of the compounds was also evaluated at 37°C over a longer period of time in MT-4 cells (5x10^4 cells per well in culture medium, four day incubation) and PHA-stimulated PBMCs (5x10^5 cells per well in culture medium, ten day incubation) because these cell types were used in anti-HIV activity assays which last up to ten days (see below). Each condition was tested in duplicate. Cytotoxicity was evaluated microscopically and, in addition, cell viability was assessed using the colorimetric CellTiter 96 AQueous One Solution Cell Proliferation Assay (Promega, Fitchburg, WI, USA), which is based on the reduction of the tetrazolium salt MTS [3-(4,5-dimethylthiazol-2-yl)-5-(3-carboxymethoxyphenyl)-2-(4-sulfophenyl)-2H-tetrazolium] to formazan by metabolically active cells. Absorbance at 490 nm was measured with the VersaMax ELISA Microplate Reader (Molecular Devices, Sunnyvale, CA, USA). The cytotoxic concentration 50 (CC50) of each compound was calculated based on the absorbance of negative (i.e. cells without compound) and positive (i.e. only culture medium) control samples.

[8] = in vitro; format: cell-based; settings: human; remark: listed apart in the source
Description: Freshly isolated peripheral blood mononuclear cells (PBMCs) were isolated out of buffy coats from healthy donors (Red Cross, Belgium). They were cultured in RPMI medium with 10% FBS, 2 mM L-glutamine and stimulated with 2 μg/ml phytohemagglutinin (PHA; Sigma-Aldrich) for three days before use in the HIV replication assays (see below).
as §1, with “The cytotoxic concentration 50 (CC50) of each compound was calculated based on the absorbance of negative (i.e. cells without compound) and positive (i.e. only culture medium) control samples.” left out

[9] = molecular target: T2, CXCR7 (Homo sapiens, UniProt P25106); assay: CXCL12 binding on CXCR7-transfected U87 cells (U87.CD4.CXCR7); settings: data not shown
T2 construct: expressed in transfected cells; host or cells: U87.CD4 cells transfected with pTEJ-8 plasmid carrying human CXCR7 cDNA

[10] = Human immunodeficiency virus 1, NL43, PBMC, 240 h, PHA-stimulated PBMCs, ten days post infection, p24 Ag ELISA, mean ± SEM, read-out: IC50 HIV-1 (X4) NL4-3 replication, PHA-stimulated PBMCs
[11] = Human immunodeficiency virus 1, NL43, MT4, 96 h, MT-4 cells, four days post infection, MTS, mean ± SEM, read-out: IC50 HIV-1 (X4) NL4-3 replication, MT-4 cells
[12] = Homo sapiens, Jurkat, 2 h, read-out: IC50 Chemotaxis
[13] = PHA-stimulated PBMCs, ten days post infection, p24 Ag ELISA, mean ± SEM, read-out: IC50 HIV-1 (X4) NL4-3 replication, PHA-stimulated PBMCs
[14] = MT-4 cells, four days post infection, MTS, mean ± SEM, read-out: IC50 HIV-1 (X4) NL4-3 replication, MT-4 cells
[15] = Jurkat cells, 6.25 nM CXCL12, two hours, mean ± SEM, read-out: IC50 Chemotaxis
[16] = Jurkat cells, 2.9 nM CXCL12^AF647, mean ± SEM
[17] = SUP-T1 cells, 6.25 nM CXCL12, 37°C 30 minutes, mean ± SEM
[18] = U87.CD4.CXCR4 cells, 6.25 nM CXCL12, mean ± SEM

T1 sequence (P61073 whole entry): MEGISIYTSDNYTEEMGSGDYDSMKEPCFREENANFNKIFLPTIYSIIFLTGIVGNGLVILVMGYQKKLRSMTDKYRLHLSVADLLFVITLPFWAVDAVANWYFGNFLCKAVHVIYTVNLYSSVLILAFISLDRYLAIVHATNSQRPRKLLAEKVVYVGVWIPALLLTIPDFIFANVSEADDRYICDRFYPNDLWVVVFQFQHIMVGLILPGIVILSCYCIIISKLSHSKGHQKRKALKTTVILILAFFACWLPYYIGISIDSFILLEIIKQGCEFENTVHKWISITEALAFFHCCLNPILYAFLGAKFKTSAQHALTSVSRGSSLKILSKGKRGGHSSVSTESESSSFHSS
T2 sequence (P25106 whole entry): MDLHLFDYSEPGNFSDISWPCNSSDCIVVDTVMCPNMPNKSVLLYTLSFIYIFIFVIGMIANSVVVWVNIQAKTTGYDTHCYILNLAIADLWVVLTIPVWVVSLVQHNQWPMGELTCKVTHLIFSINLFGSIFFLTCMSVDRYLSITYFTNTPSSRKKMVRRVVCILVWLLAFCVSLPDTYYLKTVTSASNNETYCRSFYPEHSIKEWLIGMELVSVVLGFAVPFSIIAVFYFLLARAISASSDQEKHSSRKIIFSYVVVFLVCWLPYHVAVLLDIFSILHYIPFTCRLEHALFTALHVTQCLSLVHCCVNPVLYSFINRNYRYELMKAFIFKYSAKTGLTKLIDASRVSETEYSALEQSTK

KGVSLSYRKRYSLSVGK-NH2 [CTCE-9908]
induction of CXCR4 internalization (agonistic effect) ([1]; 100 μM): absence of an agonistic effect | agonist activity on intracellular calcium flux ([2]; 20 μM): this activity was lost | agonist activity on intracellular calcium flux ([2]; 100 μM): very weak agonist activity

c1cc(CN2CCCNCCNCCCNCC2)ccc1CN1CCCNCCNCCCNCC1 [AMD3100]
IC50 [3, 10]: 14.9 ± 3.2 nM | induction of CXCR4 internalization (agonistic effect) ([1]; 50 μM): absence of an agonistic effect | IC50 [4, 11]: 11.8 ± 3.4 nM | IC50 [5, 12]: 1430 nM

CC1(C)CN2C(CSC(=NC3CCCCC3)NC3CCCCC3)=CSC2=N1 [IT1t]
IC50 [3, 13]: 19 ± 2.3 nM | IC50 [4, 14]: 14.2 ± 5.3 nM | IC50 [5, 15]: 79.1 ± 9.6 nM

CXCL12: Recombinant human CXCL12, endogenous chemokine ligand of CXCR4
EC90 ([2]; U87.CD4.CXCR4 cells, CXCL12 alone, read-out: EC90 increase of the calcium concentration): 10.9 nM

CN(C)CCN(CCN(C)C)CCN(C)C [Me6TREN]
IC50 [3, 13]: > 100000 nM | IC50 [6, 16]: 51900 nM | induction of CXCR4 internalization (agonistic effect) ([1]; 100 μM): absence of an agonistic effect | IC50 [1, 17]: > 100000 nM | IC50 [2, 18]: > 100000 nM | IC50 [4, 14]: > 100000 nM | IC50 [5, 15]: > 100000 nM

CC(C)=CCC[C@]1(C)C=Cc2c(O)c3c(c(CC=C(C)C)c2O1)O[C@]12C(=C[C@@H]4C[C@H]1C(C)(C)O[C@@]2(C/C=C(/C)C(=O)O)C4=O)C3=O [gambogic acid]
IC50 [3, 10]: > 225 nM | IC50 [6]: 7060 nM | IC50 [1]: > 10000 nM | induction of CXCR4 internalization (agonistic effect) ([1]; 10 μM): absence of an agonistic effect | IC50 [2]: 4370 nM | CC50 at 2 h [7]: 10000 nM | CC50 at 4 days [7]: ~300 nM | IC50 [4, 11]: > 376 nM | CC50 at 10 days [8]: ~300 nM | IC50 [5, 12]: 1890 nM

N=C(N)NCCC[C@H](NC(=O)[C@@H]1CSSC[C@H](NC(=O)[C@H](Cc2ccc3ccccc3c2)NC(=O)[C@H](CCCNC(=N)N)NC(=O)[C@@H](N)CCCNC(=N)N)C(=O)N[C@@H](Cc2ccc(O)cc2)C(=O)N[C@@H](CCCNC(N)=O)C(=O)N[C@@H](CCCCN)C(=O)N[C@H](CCCNC(N)=O)C(=O)N2CCC[C@H]2C(=O)N[C@@H](Cc2ccc(O)cc2)C(=O)N[C@@H](CCCNC(=N)N)C(=O)N[C@@H](CCCNC(N)=O)C(=O)N1)C(N)=O [TC14012]
IC50 ([3]; NL4-3 (X4)): 9.3 ± 4 nM | induction of CXCR4 internalization (agonistic effect) ([1]; 50 μM): absence of an agonistic effect | IC50 ([4]; NL4-3 (X4)): 7.2 ± 2.3 nM | inhibition of CXCL12 binding on CXCR7 [9]: reduced CXCL12 binding on CXCR7 in the lower micromolar range | inhibition of migration ([5]; pretreated at concentrations as low as 200 nM): total inhibition of migration

N=C(N)NCCC[C@H](NC(=O)[C@@H]1CSSC[C@H](NC(=O)[C@H](Cc2ccc3ccccc3c2)NC(=O)[C@H](CCCNC(=N)N)NC(=O)[C@@H](N)CCCNC(=N)N)C(=O)N[C@@H](Cc2ccc(O)cc2)C(=O)N[C@@H](CCCNC(=N)N)C(=O)N[C@@H](CCCCN)C(=O)N[C@H](CCCCN)C(=O)N2CCC[C@H]2C(=O)N[C@@H](Cc2ccc(O)cc2)C(=O)N[C@@H](CCCNC(=N)N)C(=O)N[C@@H](CCCNC(N)=O)C(=O)N1)C(=O)O [T140] (H-RR[2Nal]CYRK[dK]PYR[Cit]CR-OH; disulfide 4-13 (inferred); N-terminus and C-terminus assumed)
IC50 ([3]; NL4-3 (X4)): 10.4 ± 4.8 nM | induction of CXCR4 internalization (agonistic effect) ([1]; 50 μM): absence of an agonistic effect | IC50 ([4]; NL4-3 (X4)): 13.5 ± 7.1 nM | IC50 [5]: 73.7 ± 26 nM

N=C(N)NCCC[C@H](NC(=O)[C@@H]1CSSC[C@H](NC(=O)[C@H](Cc2c[nH]c3ccccc23)NC(=O)[C@H](CCCNC(=N)N)NC(=O)[C@@H](N)CCCNC(=N)N)C(=O)N[C@@H](Cc2ccc(O)cc2)C(=O)N[C@@H](CCCNC(=N)N)C(=O)N[C@@H](CCCCN)C(=O)N[C@H]2CSSC[C@H](NC(=O)[C@H](Cc3ccc(O)cc3)NC(=O)CNC(=O)[C@H](CCCCN)NC(=O)[C@H](Cc3ccc(O)cc3)NC2=O)C(=O)N[C@@H](Cc2ccc(O)cc2)C(=O)N[C@@H](CCCNC(=N)N)C(=O)N[C@@H](CCCCN)C(=O)N1)C(N)=O [T22, (Tyr^5.12,Lys^7)-Polyphemusin II] (H-RRWCYRKCYKGYCYRKCR-NH2; disulfide 4-17, 8-13 (inferred); N-terminus and C-terminus assumed)
induction of CXCR4 internalization (agonistic effect) ([1]; 50 μM): absence of an agonistic effect

NCCCCN(Cc1nc2ccccc2[nH]1)[C@H]1CCCc2cccnc21 [AMD11070]
IC50 [3, 10]: 26.4 ± 6.1 nM | induction of CXCR4 internalization (agonistic effect) ([1]; 50 μM): absence of an agonistic effect | IC50 [4, 11]: 11.9 ± 4.6 nM | inhibition of CXCL12 binding on CXCR7 [9]: reduced CXCL12 binding on CXCR7 in the lower micromolar range | IC50 [5, 12]: 74.9 ± 17.7 nM

c1ccc(CNCc2ccc(CN3CCCNCCNCCCNCC3)cc2)nc1 [AMD3465]
IC50 [3, 13]: 27.2 ± 8.7 nM | IC50 [6, 16]: 2.1 ± 0.24 nM | induction of CXCR4 internalization (agonistic effect) ([1]; 50 μM): absence of an agonistic effect | IC50 [1, 17]: 67.3 ± 11.3 nM | IC50 [2, 18]: 53.4 ± 24.3 nM | IC50 [4, 14]: 21.8 ± 10.1 nM | IC50 [5, 15]: 116 ± 15.2 nM

From article PMC5391968, “Comparison of cell-based assays for the identification and evaluation of competitive CXCR4 inhibitors” (PLoS ONE, 2017)
